Measured values as given in US20250082649A1, “ALTERATION OF NUTRIENT PREFERENCES VIA MODULATION OF NUTRIENT RECEPTORS IN THE GUT” (The Trustees of Columbia University in the City of New York, priority 2022, published 2025).
Entries after “also recorded” stand apart in the source; their conditions may differ.

Key:
cNST = assay: Fos stimulation and histology, cNST; format: in vivo, mice; settings: 90 min exposure; 20% Intralipid, 10% linoleic acid or 10% oleic acid vs xanthan gum / mineral oil controls
Description: Separate cohorts of animals were exposed to 3 different lipid stimuli (Intralipid, linoleic acid, or oleic acid) and to fat-free textural controls (xanthan gum or mineral oil). […] The cNST is a nexus of interoceptive signals conveying information from the body to the brain via the gut-brain axis. If the fat-activated brain cNST neurons are receiving signals originating in the gut, then direct delivery of fat stimuli into the gut should also induce activation of the cNST. An intragastric catheter was implanted in the stomach and infused either a fat solution or a vehicle control. Intragastric infusion of fat, but not of a vehicle, is sufficient to activate the cNST as robustly as oral ingestion (FIG. 1E, FIG. 1F, FIG. 8J, FIG. 8K, FIG. 8L).
Fos stimulation and histology. Stimuli consisted of 20% Intralipid (sc215182, Santa Cruz Biotechnology), 10% linoleic acid, 10% oleic acid, 0.3% xanthan gum or 10% mineral oil. Stimuli were emulsified by dilution into milliQ water containing 0.1% xanthan gum and 0.05% Tween 80, and vortexed for a minimum of 10 min. […] Quantification of Fos labelling was carried out by recording the number of positive neurons in an equivalent 200×200 um area of the cNST (bregma—7.5 mm) and area postrema. […]

vagal sensory neurons = assay: Vagal calcium imaging (nodose ganglion, GCaMP6s) with intestinal delivery of stimuli; format: in vivo, mice; settings: for responding vagal neurons of imaged neurons: intestinal delivery, 10% fatty acid or pre-digested Intralipid, FIG. 10E-10I stimuli interleaved with 10% LA (10 s)
Description: To directly examine and monitor the fat responses of vagal sensory neurons, functional imaging of the nodose ganglion (which contains the cell bodies of vagal neurons) was performed. The genetically encoded activity sensor GCaMP6s was targeted to vagal sensory neurons using Vglut2-Cre animals, and a one-photon calcium imaging set-up was used coupled to synchronous intestinal delivery of fat, sugar and other stimuli to record neuronal responses in vivo, with real time kinetics (FIG. 2E, FIG. 10A, FIG. 10B, FIG. 10C). To administer the stimuli, a catheter was placed into the duodenal bulb, and an exit port was created by transecting the intestine 10 cm distally. During each imaging session, the intestine was exposed to a pre-stimulus application of PBS, a 10 s or 60 s exposure to the test stimulus, and a 200 s post-stimulus wash; this regime was repeated at least 3 times for each stimulus.
Fat, sugar and amino acid intestinal stimulation. Stimuli for nodose imaging experiments were as follows. Sugar: 500 mM glucose. Amino acids: a mix consisting of 50 mM methionine, 50 mM serine, 50 mM alanine, 50 mM glutamine and 50 mM cysteine dissolved in PBS. Fat: 10% linoleic acid, 10% linolenic acid, 10% hexanoic acid, 10% DHA, 10% oleic acid, diluted in PBS containing 0.1% xanthan gum and 0.05% Tween 80, and vortexed for a minimum of 10 min. Vehicle control: 0.1% xanthan gum and 0.05% Tween 80. For sugar and fat intestinal stimulation in imaging experiments, a 10 s window of stimulation was used; for amino acids, a 60 s stimulus was used, as lower concentrations of each in the mix of several amino acids was used (see above). Note that if using Intralipid mix (a 20% soy bean oil emulsion, Santa Cruz) for nodose imaging experiments (rather than consumption where it would be naturally digested and broken down into short, medium and long chain fatty acids), the material was pre-digested with lipases (mimicking its natural course of action upon ingestion). […] Intralipid was incubated with 4 mg/ml lipase (sigma) in PBS plus 10 mM CaCl2 for a minimum of 5 h at 37° C.
Vagal calcium imaging. Each mouse was anaesthetized with ketamine (100 mg/kg) and xylazine (10 mg/kg). […] For glutamate receptor blocker experiments, a mixture of metabotropic glutamate receptor antagonist AP3 (2 mg/kg) and ionotropic glutamate receptor antagonist kynurenic acid (300 μg/kg) was used. CCKAR and glutamate receptor blockers were delivered both into the intestines and abdominal cavity; after a 5 min incubation period, the imaging session was started.
Calcium imaging data collection and analysis. […] Data was acquired at 5 Hz. A single field of view was chosen for recording and analysis from each ganglion. Calcium imaging data collected at 5 Hz was down-sampled by a factor of 2, and the images were stabilized using the NORMCorre algorithm. Motion-corrected movies were then manually segmented in ImageJ using the Cell Magic Wand plugin. Neuropil fluorescence was subtracted from each region of interest with the FISSA toolbox, and neural activity was denoised using the OASIS deconvolution algorithm. […] For experiments using blockers, two repeat trials per stimuli were used to accommodate the expanded time scale of the session (that is, before and after), and a neuron was considered a responder if it responded in both trials. The two-trial average area under curve for each stimulus was used to quantify the before and after responses (FIG. 12D, FIG. 12E). Imaging data is presented as heat maps of z-score-normalized responses.

vagal neurons = assay: CCK application in vagal calcium imaging; format: in vivo, mice; settings: 1 μg/ml CCK, 60 s
Description: Calcium imaging data collection and analysis. […] Data was acquired at 5 Hz.

mice = assay: Brief-access (30 min) two-bottle tests, immediate attraction; format: in vivo; settings: 30 min two-bottle test, 3 mM AceK or 1.5% Intralipid, n=9 mice
Description: Two-bottle preference assays. No behavioral experiments, including the short-term assays for taste responses, or the 48 h tests examining the development of sugar or fat preference used water-restricted or food-deprived mice. Mice were given ad libitum access to food and water for several days prior to the behavioral tests; any food or water restriction would severely affect the mice's behavior in preference or taste responses. Development of fat preference: mice were first tested for their initial preference between 1.5% Intralipid and 3 mM AceK (pre testing) by completing 100 drinking trials. Each trial was initiated by the first lick and lasted for 5 s; the drinking ports then re-opened after 30 s of inter-trial interval. Next, mice were exposed to 500 licks to both 1.5% Intralipid and 3 mM AceK; this was repeated twice. […] The pre and post-preference indexes were calculated by dividing the number of licks to fat by the total lick count during the first 2-4 h (100 trials) of baseline measurements (pre) and during the last 2-4 h (100 trials) of the behavioural session (post), respectively. […] The ‘pre’ preference index was calculated as the number of licks to fat divided by the total lick count during the first 4 h; the “post” preference index was calculated as the number of licks to fat divided by the total lick count during the last 4 h of the session. […]

cNST neurons = assay: Fibre photometry of cNST activity in response to intestinal delivery of stimuli; format: in vivo, mice; settings: Penk-Cre animals
Description: Fibre photometry. Vglut2-cre; Ai96 mice were placed in a stereotaxic frame and implanted with a 400 μm core, 0.48 NA optical fibre (Doric Lenses) 50-100 μm over the left cNST. […] To quantify the effects of vagotomy, the ratio of stimulus-related peak amplitude of the normalized trace was calculated (within 120 s of stimulus onset) prior vagotomy versus after vagotomy. […] Stimulus delivery was performed via a series of peristaltic pumps (BioChem Fluidics) operated via custom Matlab software and Arduino microcontroller. Stimuli and washes were delivered through separate lines that converged on a common perfusion manifold (Warner Instruments) connected to the duodenal catheter. Trials consisted of a 60-s baseline (PBS 200 μl/min), a 30 s stimulus (200 μl/min), and a 3-min washout period (150 s at 600 μl/min, and 30 s at 150 μl/min). Stimuli were each presented three times in an interleaved fashion.

CCCCCCCC/C=C\CCCCCCCC(=O)O [oleic acid]
Fos labelling in cNST upon ingestion (cNST): strong Fos labelling; also recorded: strong bilateral activation | responding vagal neurons of imaged neurons (vagal sensory neurons): 39/418

CC/C=C\C/C=C\C/C=C\CCCCCCCC(=O)O [alpha-linolenic acid]
responding vagal neurons of imaged neurons (vagal sensory neurons): 49/322

Cholecystokinin [CCK]
activation of fat-only vagal neurons (vagal neurons): not the fat-only vagal neurons | activation of sugar/nutrient responding vagal neurons (vagal neurons): all sugar/nutrient responders were activated; also recorded: also responded to CCK | activation of sugar/nutrient responding vagal neurons (vagal neurons; listed as CCK peptide): strongly activated

CCCCCC(=O)O [hexanoic acid]
responding vagal neurons of imaged neurons (vagal sensory neurons): 52/495

CC1=CC(=O)[N-]S(=O)(=O)O1.[K+] [AceK, acesulfame K]
immediate attraction versus water (mice): strong innate attraction

CC/C=C\C/C=C\C/C=C\C/C=C\C/C=C\C/C=C\CCC(=O)O [docosahexaenoic acid]
responding vagal neurons of imaged neurons (vagal sensory neurons): 51/348

CCCCC/C=C\C/C=C\CCCCCCCC(=O)O [linoleic acid]
cNST neural responses to intestinal delivery (cNST neurons; 10% linoleic acid or 500 mM glucose, n=4 mice): robust, time-locked responses | Fos labelling in cNST upon ingestion (cNST): strong Fos labelling; also recorded: strong bilateral activation | neurons that responded only to fat (fat-only responders) (vagal sensory neurons; 10% linoleic acid and 500 mM glucose, 10 s, 1813 neurons imaged, 22 vagal ganglia): 153 | TRPA1-expressing vagal neurons responding to fat (vagal sensory neurons; Trpa1-Cre, Ai162, 163 imaged neurons from 5 ganglia, 10% linoleic acid): ~24% | subset of vagal neurons with evoked responses, % of GCaMP-expressing Vglut2 neurons (vagal sensory neurons; intestinal infusion, Vglut2-Cre animals): 17% | vagal neuron responses to intestinal delivery (vagal sensory neurons; vs vehicle control (0.1% xanthan gum plus 0.05% Tween 80)): strong responses; also recorded: robust responses

CN1C(=O)[C@@H](NC(=O)c2cc3ccccc3[nH]2)N=C(c2ccccc2)c2ccccc21 [devazepide, Devazepide]
cNST responses to intestinal fat stimulation after removing CCK-dependent signaling (cNST neurons; photometric recordings, n=5): ~50% | cNST sugar-evoked responses after inhibiting signaling via the CCK dependent pathway (cNST neurons; photometric recordings, n=5): completely abolished
